Like-named read-outs stand apart in the source and are kept apart here.
Columns and labels:
[1] = target: T1, LiTryR dimer (Leishmania infantum, UniProt A4HSF7); experiment: biochemical; conditions: for IC50: 400 nM LiTryR, 16 h at 37 °C, read-out: IC50^dim, LiTryR monomer displacement (dimer quantitation ELISA); for inhibition at 20 µM: read-out: Percentage of inhibition (dimerization) observed at 20 μM, 20 μM compound
T1 construct: made in house; host or cells: E. coli BL21 (DE3) Rossetta (co-transformed with both plasmids)
T1 sequence (A4HSF7 1-491): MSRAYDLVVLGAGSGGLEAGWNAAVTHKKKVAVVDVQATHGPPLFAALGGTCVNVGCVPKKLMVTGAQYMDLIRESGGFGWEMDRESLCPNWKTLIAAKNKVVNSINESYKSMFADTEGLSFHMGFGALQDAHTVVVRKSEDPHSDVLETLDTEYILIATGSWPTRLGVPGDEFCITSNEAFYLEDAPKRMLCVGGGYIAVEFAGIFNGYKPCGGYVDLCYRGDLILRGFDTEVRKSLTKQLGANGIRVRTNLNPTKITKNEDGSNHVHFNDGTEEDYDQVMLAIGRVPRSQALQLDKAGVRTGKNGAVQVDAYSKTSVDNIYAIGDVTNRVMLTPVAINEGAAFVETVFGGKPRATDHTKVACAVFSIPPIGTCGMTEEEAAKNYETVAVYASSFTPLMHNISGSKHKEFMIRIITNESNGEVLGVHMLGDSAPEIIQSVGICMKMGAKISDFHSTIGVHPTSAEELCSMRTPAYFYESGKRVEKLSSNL

[2] = tested on: THP-1 monocyte-derived macrophages; experiment: Cytotoxicity in THP-1 monocyte-derived macrophages (LDH activity); type: cell-based, human; conditions: Homo sapiens, THP-1; LDH activity
Procedure: THP-1 cells were grown in RPMI-1640 medium (Gibco, Leiden, The Netherlands) supplemented with 10% heat-inactivated FCS, antibiotics, 10 mM HEPES, 2 mM glutamine, and 1 mM sodium pyruvate, pH 7.2, at 37 °C and 5% CO2.
THP-1 monocytes were seeded in a 48-well plate at a concentration of 5 × 10^5 cells/mL (250 μL/well) in RPMI complete medium supplemented with phorbol 12-myristate 13-acetate (PMA) (100 ng/mL). Differentiation of THP-1 monocytes to macrophages was allowed for 24 h at 37 °C and 5% CO2. THP-1-derived macrophages were infected with GFP-expressing axenic amastigotes at 5 × 10^6 parasites/mL in RPMI complete medium for 24 h (250 μL/well). Extracellular amastigotes were washed twice with PBS. The remaining extracellular parasites were challenged for 24 h with THP-1 medium supplemented with 10% horse serum (Gibco) instead of FCS. Cells were washed twice with PBS, and treatments were performed in 250 μL of fresh RPMI medium supplemented with 10% horse serum for 72 h at 37 °C and 5% CO2. Afterward, treatments were removed by two PBS washes. Lysis of infected cells was performed with 120 μL of SDS 0.005% (w/v) in PBS. After a 30 min incubation at 37 °C, lysis was stopped by adding RPMI complete medium with PI at 20 μg/mL (120 μL/well). The lysates were transferred to a 96-well plate (200 μL/well), and the GFP^+ amastigotes extracted from the infected cells were acquired by a Beckman Coulter FC500 flow cytometer. Each sample (100 μL) was acquired for 20 s.
Cytotoxicity of THP-1 infected macrophages was determined using an in-house developed lactate dehydrogenase (LDH) activity assay. LDH activity assays from the remaining cell lysates (100 μL/well) were carried out at 37 °C in 250 μL of Tris/HCl buffer (pH 8.9, 50 mM) containing DL-lactate (840 mM), NAD^+ (450 μM), 1-methoxyphenazine methosulfate (45 μM), and nitro blue tetrazolium chloride (40 μM). The color intensity of the generated formazan dye was monitored at 570 nm using an EnSpire Multimode Plate Reader (PerkinElmer, Waltham, MA). CC50 values were calculated using a nonlinear regression model with GraFit 6 software (Erithacus, Horley, Surrey, U.K.).

[3] = target: T2, TcoTryR (Trypanosoma congolense, UniProt P13110); experiment: TryR oxidoreductase activity, DTNB-coupled assay (TcoTryR); type: biochemical
T2 construct: HIS; made in house; host or cells: E. coli
T2 sequence (P13110 whole entry): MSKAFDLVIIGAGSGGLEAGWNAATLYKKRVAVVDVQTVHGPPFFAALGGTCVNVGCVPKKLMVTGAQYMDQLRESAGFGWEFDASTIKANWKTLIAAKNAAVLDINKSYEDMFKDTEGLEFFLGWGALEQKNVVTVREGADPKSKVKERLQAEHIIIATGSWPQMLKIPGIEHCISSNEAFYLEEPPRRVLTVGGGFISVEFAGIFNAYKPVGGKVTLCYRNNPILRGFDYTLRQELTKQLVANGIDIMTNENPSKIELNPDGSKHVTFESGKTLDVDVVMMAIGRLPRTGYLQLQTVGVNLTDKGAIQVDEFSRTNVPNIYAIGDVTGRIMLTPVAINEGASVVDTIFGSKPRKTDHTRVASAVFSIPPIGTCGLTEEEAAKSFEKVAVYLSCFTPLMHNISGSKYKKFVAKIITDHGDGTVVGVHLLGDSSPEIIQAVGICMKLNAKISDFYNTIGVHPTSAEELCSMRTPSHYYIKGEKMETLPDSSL
Description: (§1) The DNA coding sequences for Homo sapiens GR, T. brucei TryR, and T. congolense TryR were polymerase chain reaction (PCR)-amplified and cloned in the pRSETA plasmid. The DNA coding for hGR (transcript variant 1; NCBI Reference Sequence: NM_000637.5) was purchased from GeneScript. Genomic DNA from T. congolense parasites was kindly provided by Dr. Stefan Magez (University of Vrije, Brussels). Genomic DNA from the T. brucei S16 cell line was kindly provided by José M. Pérez-Victoria. Instituto de Parasitología y Biomedicina “López—Neyra” CSIC. HIS-tagged recombinant T. brucei and T. congolense TryRs (TbTryR and TcoTryR, respectively) were purified from E. coli as already explained for LiTryR.
(§2) TryR oxidoreductase activity was determined spectrophotometrically using a modified version of the DTNB-coupled assay described by Hamilton et al.[52] Briefly, reactions were carried out at 26 °C in 250 μL of N-(2-hydroxyethyl)piperazine-N′-ethanesulfonic acid (HEPES) buffer (pH 7.5, 40 mM) containing ethylenediaminetetraacetic acid (EDTA) (1 mM), NADP^+ (30 μM), DTNB (25 μM), TS2 (1 μM), NADPH (150 μM), glycerol (0.02%), DMSO (1.75%), and recombinant TryR (7 nM). […] Reactions were started by addition of a mixture of NADPH and TS2.
(§3) TryR oxidoreductase activity was monitored at 26 °C by an increase in absorbance at 412 nm in an EnSpire Multimode Plate Reader (PerkinElmer, Waltham, MA). […] (TNB) concentration was obtained by multiplying the absorbance values by 100 (50 μM TNB generates 0.5 arbitrary units of absorbance at 412 nm). In this DTNB-coupled assay, one molecule of T(SH)2 reduces one molecule of DTNB, producing two TNB molecules. All of the assays were conducted in at least three independent experiments. Data were analyzed using a nonlinear regression model with GraFit 6 software (Erithacus, Horley, Surrey, U.K.).

[4] = target: T3, TbTryR (Trypanosoma brucei brucei, UniProt P39051); experiment: TryR oxidoreductase activity, DTNB-coupled assay (TbTryR); type: biochemical
T3 construct: HIS; made in house; host or cells: E. coli
T3 sequence (P39051 whole entry): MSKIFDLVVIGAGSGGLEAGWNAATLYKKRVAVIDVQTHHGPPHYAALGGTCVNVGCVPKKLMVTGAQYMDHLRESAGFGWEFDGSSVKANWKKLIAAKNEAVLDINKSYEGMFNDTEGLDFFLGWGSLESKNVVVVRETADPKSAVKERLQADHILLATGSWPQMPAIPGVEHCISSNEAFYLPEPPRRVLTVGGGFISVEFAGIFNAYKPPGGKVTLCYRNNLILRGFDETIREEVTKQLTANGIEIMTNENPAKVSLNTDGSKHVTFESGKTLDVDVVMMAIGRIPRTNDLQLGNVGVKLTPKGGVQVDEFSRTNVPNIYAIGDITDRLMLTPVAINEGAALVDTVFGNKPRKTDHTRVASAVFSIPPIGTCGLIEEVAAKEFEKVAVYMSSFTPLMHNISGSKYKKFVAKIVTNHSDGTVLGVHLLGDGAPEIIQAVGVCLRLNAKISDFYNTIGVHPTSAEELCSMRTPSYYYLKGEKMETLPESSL
Description: as §1, §2, §3

[5] = read-out: IC50, oxidoreductase activity of TbTryR

SMILES | IC50 [1] [µM] | EC50 [2] [µM] | IC50 [3] [µM] | inhibition at 20 µM [1] [%] | IC50 [4, 5] [µM] | fold more potent than 12n, IC50^dim ([1]; versus monomeric 12n) [fold] | IC50 [4] [µM]
NCCCCc1cn(-c2ccc(-c3nc(CCc4ccc5oc6ccccc6c5c4)cs3)c(OCCN3CCNC3=O)c2)nn1.O=C(O)C(F)(F)F [12s] | 8.8 ± 0.2 |  |  |  |  |  | 
NCCCCc1cn(-c2ccc(-c3nc(CCc4ccc(-c5ccccc5)cc4)cs3)c(OCCN3CCNC3=O)c2)nn1.O=C(O)C(F)(F)F [12c, 1-(2-(2-(4-(2-([1,1′-Biphenyl]-4-yl)ethyl)thiazol-2-yl)-5-(4-(4-ammoniumbutyl)-1H-1,2,3-triazol-1-yl)phenoxy)ethyl)imidazolidin-2-one 2,2,2-Trifluoroacetate] | 4.8 ± 0.6 | > 75 | 4.8 ± 1.8 | 78 | 10 ± 2.5 |  | 
NCCNCc1nccn1-c1ccc(-c2nc(CCc3ccc4ccccc4c3)cs2)c(OCCN2CCNC2=O)c1 [compound 2, reference compound] |  | 27.9 ± 4.4 |  | ~30 |  |  | 
NCCCc1cn(-c2ccc(-c3nc(CCc4ccc(-c5ccccc5)cc4)cs3)c(OCCN3CCNC3=O)c2)nn1.O=C(O)C(F)(F)F [12i] | 10.8 ± 0.1 | > 75 |  |  |  |  | 
NCCCCc1cn(-c2ccc(-c3nc(-c4ccccc4)c(-c4ccccc4)s3)c(OCCN3CCNC3=O)c2)nn1.O=C(O)C(F)(F)F [19a, 1-(2-(5-(4-(4-Ammoniobutyl)-1H-1,2,3-triazol-1-yl)-2-(4,5-diphenylthiazol-2-yl)phenoxy)ethyl)imidazolidin-2-one 2,2,2-Trifluoroacetate] | 7.1 ± 1.7 |  | 5.6 ± 0.8 |  | 7.3 ± 0.6 |  | 
NCCCCc1cn(-c2ccc(-c3nc(CCc4ccc5ccccc5c4)cs3)c(OCCN3CCNC3=O)c2)nn1.O=C(O)C(F)(F)F [12b, 1-(2-(5-(4-(4-Ammoniumbutyl)-1H-1,2,3-triazol-1-yl)-2-(4-(2-(naphthalen-2-yl)ethyl)thiazol-2-yl)phenoxy)ethyl)imidazolidin-2-one 2,2,2-Trifluoroacetate] | 7.1 ± 0.6 | > 75 | 4.8 ± 1.9 | 73 | 9.7 ± 2.1 |  | 
NCCCCc1cn(-c2ccc(-c3nc(CCc4ccc5c(c4)CCCN5)cs3)c(OCCN3CCNC3=O)c2)nn1.O=C(O)C(F)(F)F.O=C(O)C(F)(F)F [12q] | > 75 | > 75 |  |  |  |  | 
NCCCCc1cn(-c2ccc(-c3nc(-c4ccccc4)cs3)c(OCCN3CCNC3=O)c2)nn1.O=C(O)C(F)(F)F [12n] | 29 ± 1.5 |  | 9.3 ± 0.8 |  | 12.5 ± 1.9 |  | 
NCCCCc1cn(-c2ccc(-c3nc(-c4cccc(-c5csc(-c6ccc(-n7cc(CCCCN)nn7)cc6OCCN6CCNC6=O)n5)c4)cs3)c(OCCN3CCNC3=O)c2)nn1.O=C(O)C(F)(F)F.O=C(O)C(F)(F)F [compound 22, 1,1′-((((1,3-Phenylenebis(thiazole-4,2-diyl))bis(5-(4-(4-ammoniobutyl)-1H-1,2,3-triazol-1-yl)-2,1-phenylene))bis(oxy))bis(ethane-2,1-diyl))bis(imidazolidin-2-one)bis(2,2,2-trifluoroacetate)] | 8 ± 0.2 | 48.4 ± 14.5 | 0.5 ± 0.1 |  | 1 ± 0.3 | 4 | 
NCCCCc1cn(-c2ccc(-c3nc(CCc4ccc5c(c4)CCO5)cs3)c(OCCN3CCNC3=O)c2)nn1.O=C(O)C(F)(F)F [12r] | 10.7 ± 0.5 |  | 10.1 ± 1.4 |  |  |  | 15 ± 2.9
NCCNCc1nccn1-c1ccc(-c2nc(CCc3ccc(-c4ccccc4)cc3)cs2)c(OCCN2CCNC2=O)c1 [compound 3, reference compound] |  | 15.5 ± 1.8 |  | ~30 |  |  | 
NCCCCc1cn(-c2ccc(-c3nc(-c4ccc(Oc5ccccc5)cc4)c(-c4ccccc4)s3)c(OCCN3CCNC3=O)c2)nn1.O=C(O)C(F)(F)F [19c, 1-(2-(5-(4-(4-Ammoniobutyl)-1H-1,2,3-triazol-1-yl)-2-(4-([4-phenyloxyphenyl]-1-yl)-5-phenylthiazol-2-yl)phenoxy)ethyl)imidazolidin-2-one 2,2,2-Trifluoroacetate] | 9 ± 0.5 | > 75 |  |  |  |  | 

Source: PMC8480782, “Efficient Dimerization Disruption of Leishmania infantum Trypanothione Reductase by Triazole-phenyl-thiazoles” (Journal of Medicinal Chemistry, 2021)
